Results taken from US10544147B2, “Purine inhibitors of human phosphatidylinositol 3-kinase delta” (MERCK SHARP & DOHME CORP., priority 2016, dated 2020).

What was measured:
PI3Kalpha = PI3Kalpha (Homo sapiens (Human), UniProt P42336); experiment: HTRF PI3K biochemical assay, alpha isoform (selectivity versus delta); conditions: ratio PI3K-alpha IC50 value/PI3K-delta IC50 value
Method: (§1) HTRF PI3K Biochemical Assay to Measure Intrinsic Potency of Compound Inhibitors
(§2) This loss of signal is nonlinear with respect to both increasing product and time. This non-linear detection will impact accuracy of IC50 calculations; therefore, there is a need for a correction factor to obtain more accurate IC50 values. This correction is derived from a PIP3 standard curve run in a separate assay plate. All data were calculated using the ratio of acceptor (APC) to donor (Europium) fluorescence in each well of the assay plate. […] An IC50 was then calculated fitting the % inhibition data to the equation: % inhibition=min+(Max−min)/1+([inhibitor]/IC50)^n) where min is the % inhibition with inhibitor, max is the signal in DMSO control, and n is the Hill slope.
(§3) The biological data was collected using the methodology described above.
The determination of relative selectivity for a given compound is defined as the relative ratio of the (PI3K-alphaIC50 value/PI3K-delta IC50 value).

PI3Kdelta = PI3Kdelta (Homo sapiens (Human), UniProt O00329); experiment: HTRF PI3K biochemical assay, delta isoform; conditions: 0.3 nM enzyme, 100 uM ATP, 50 uM PIP2; form screened (neutral or TFA salt)
Chain of PI3Kdelta (O00329 whole entry, canonical isoform): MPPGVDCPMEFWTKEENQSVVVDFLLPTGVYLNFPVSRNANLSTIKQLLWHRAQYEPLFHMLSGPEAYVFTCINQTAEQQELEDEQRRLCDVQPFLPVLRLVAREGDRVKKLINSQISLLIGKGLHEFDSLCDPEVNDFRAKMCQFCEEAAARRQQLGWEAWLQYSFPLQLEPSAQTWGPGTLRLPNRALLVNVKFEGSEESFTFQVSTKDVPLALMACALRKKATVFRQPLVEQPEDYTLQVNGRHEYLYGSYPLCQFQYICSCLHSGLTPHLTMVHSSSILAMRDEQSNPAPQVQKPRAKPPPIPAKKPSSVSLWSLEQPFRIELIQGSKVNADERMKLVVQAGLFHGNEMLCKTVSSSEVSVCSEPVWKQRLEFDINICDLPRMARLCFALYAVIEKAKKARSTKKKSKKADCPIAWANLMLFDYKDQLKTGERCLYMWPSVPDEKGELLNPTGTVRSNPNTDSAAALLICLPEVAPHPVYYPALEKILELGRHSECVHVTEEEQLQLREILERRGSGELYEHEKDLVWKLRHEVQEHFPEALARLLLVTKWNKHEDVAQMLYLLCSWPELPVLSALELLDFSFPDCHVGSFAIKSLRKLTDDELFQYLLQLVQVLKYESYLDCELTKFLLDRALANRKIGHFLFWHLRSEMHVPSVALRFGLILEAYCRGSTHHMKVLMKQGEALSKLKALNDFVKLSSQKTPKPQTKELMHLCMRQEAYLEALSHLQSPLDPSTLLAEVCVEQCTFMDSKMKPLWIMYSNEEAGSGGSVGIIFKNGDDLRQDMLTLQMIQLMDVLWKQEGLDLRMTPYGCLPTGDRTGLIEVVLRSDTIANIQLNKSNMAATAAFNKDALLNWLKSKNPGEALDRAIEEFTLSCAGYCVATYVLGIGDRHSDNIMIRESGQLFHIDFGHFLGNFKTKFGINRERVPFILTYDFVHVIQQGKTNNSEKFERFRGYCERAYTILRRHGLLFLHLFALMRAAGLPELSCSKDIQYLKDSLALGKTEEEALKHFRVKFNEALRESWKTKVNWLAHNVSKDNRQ
Chain of PI3Kdelta (P27986 whole entry partner, canonical isoform): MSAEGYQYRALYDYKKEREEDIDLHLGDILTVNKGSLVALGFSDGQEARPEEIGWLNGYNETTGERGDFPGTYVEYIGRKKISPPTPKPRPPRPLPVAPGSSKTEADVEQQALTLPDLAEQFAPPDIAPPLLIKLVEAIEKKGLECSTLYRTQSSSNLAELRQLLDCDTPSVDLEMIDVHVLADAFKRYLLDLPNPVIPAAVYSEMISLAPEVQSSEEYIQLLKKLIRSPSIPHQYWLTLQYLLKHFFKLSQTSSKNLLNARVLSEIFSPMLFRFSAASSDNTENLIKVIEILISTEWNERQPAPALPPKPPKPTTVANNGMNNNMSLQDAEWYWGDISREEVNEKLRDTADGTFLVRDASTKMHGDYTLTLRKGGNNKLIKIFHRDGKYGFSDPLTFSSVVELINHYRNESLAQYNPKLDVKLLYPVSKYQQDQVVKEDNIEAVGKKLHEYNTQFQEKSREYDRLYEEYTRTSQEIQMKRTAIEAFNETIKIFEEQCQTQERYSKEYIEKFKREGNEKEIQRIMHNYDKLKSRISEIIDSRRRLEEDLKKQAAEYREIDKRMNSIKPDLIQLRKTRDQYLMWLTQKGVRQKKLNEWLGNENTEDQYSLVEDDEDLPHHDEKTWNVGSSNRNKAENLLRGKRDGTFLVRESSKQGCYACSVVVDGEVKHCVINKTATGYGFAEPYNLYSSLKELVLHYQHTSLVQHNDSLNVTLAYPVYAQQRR
Method: as §1, §2, §3

Chain of PI3Kalpha (P42336 whole entry, canonical isoform): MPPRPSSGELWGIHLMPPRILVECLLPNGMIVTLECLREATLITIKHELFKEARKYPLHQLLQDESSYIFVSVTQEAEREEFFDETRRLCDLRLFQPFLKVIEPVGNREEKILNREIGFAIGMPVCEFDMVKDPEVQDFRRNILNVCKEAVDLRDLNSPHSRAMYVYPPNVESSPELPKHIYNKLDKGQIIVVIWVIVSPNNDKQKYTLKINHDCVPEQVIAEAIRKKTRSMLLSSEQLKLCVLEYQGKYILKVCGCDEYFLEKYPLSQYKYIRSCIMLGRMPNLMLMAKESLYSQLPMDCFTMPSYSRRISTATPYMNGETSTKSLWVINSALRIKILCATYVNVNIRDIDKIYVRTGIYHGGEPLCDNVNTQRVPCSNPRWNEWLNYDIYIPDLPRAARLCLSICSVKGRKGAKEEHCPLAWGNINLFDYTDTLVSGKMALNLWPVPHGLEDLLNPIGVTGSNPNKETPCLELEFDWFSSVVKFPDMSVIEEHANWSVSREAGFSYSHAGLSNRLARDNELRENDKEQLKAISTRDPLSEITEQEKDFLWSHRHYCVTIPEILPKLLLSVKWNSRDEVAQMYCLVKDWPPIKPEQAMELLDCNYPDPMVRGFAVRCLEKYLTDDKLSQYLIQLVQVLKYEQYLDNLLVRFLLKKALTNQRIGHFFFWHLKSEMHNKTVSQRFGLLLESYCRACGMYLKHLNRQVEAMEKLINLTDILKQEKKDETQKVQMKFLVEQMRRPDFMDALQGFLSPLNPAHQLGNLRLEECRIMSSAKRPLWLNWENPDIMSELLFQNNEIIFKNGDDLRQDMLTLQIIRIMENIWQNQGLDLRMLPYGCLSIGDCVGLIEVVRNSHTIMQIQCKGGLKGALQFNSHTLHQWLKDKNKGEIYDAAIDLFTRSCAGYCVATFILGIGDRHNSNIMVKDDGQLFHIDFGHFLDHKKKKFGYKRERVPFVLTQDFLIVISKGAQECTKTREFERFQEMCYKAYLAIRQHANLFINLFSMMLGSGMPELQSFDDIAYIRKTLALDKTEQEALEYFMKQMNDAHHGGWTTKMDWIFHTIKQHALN
Chain of PI3Kalpha (P27986 whole entry partner, canonical isoform): as the sequence (P27986 whole entry partner, canonical isoform) above

| Compound | Relative Selectivity versus PI3Kalpha (PI3Kalpha) | IC50 (PI3Kdelta) [nM] |
| --- | --- | --- |
| CCn1c(-c2cnc(C)nc2)nc2c(-c3ccc4c(c3)C(C)(NC[C@@H]3CCCO3)C(=O)N4)ncnc21 (mixture of isomers) [Compound 2-21, 5-[9-ethyl-8-(2-methylpyrimidin-5-yl)-9H-purin-6-yl]-3(R and S)-methyl-3-{[(2S)-tetrahydrofuran-2-ylmethyl]amino}-1,3-dihydro-2H-indol-2-one] | >10 | 22 |
| CCn1c(-c2cnc(C)nc2)nc2c(-c3ccc4c(c3)C(C)(NC[C@H]3CCCO3)C(=O)N4)ncnc21 (mixture of isomers) [Compound 2-22, 5-[9-ethyl-8-(2-methylpyrimidin-5-yl)-9H-purin-6-yl]-3(R and S)-methyl-3-{[(2R)-tetrahydrofuran-2-ylmethyl]amino}-1,3-dihydro-2H-indol-2-one] | >10 | 26 |
| CCn1c(-c2cnc(C)nc2)nc2c(-c3ccc4c(c3)C(C)(N3CCOCC35CCC5)C(=O)N4)ncnc21 (racemic) [Compound 2-23, (R and S)-5-[9-ethyl-8-(2-methylpyrimidin-5-yl)-9H-purin-6-yl]-3-methyl-3-(8-oxa-5-azaspiro[3.5]non-5-yl)-1,3-dihydro-2H-indol-2-one] | >10 | 7 |
| CCn1c(-c2cnc(C)nc2)nc2c(-c3ccc4c(c3)C(C)(N3CCn5nccc5C3)C(=O)N4)ncnc21 (racemic) [Compound 2-24, (R and S)-3-(6,7-dihydropyrazolo[1,5-a]pyrazin-5(4H)-yl)-5-[9-ethyl-8-(2-methylpyrimidin-5-yl)-9H-purin-6-yl]-3-methyl-1,3-dihydro-2H-indol-2-one] | >10 | 67 |
| CCn1c(-c2cnc(C)nc2)nc2c(-c3ccc4c(c3)C(C)(NC3CCOCC3)C(=O)N4)ncnc21 (racemic) [Compound 2-25, (R and S)-5-[9-ethyl-8-(2-methylpyrimidin-5-yl)-9H-purin-6-yl]-3-methyl-3-(tetrahydro-2H-pyran-4-ylamino)-1,3-dihydro-2H-indol-2-one] | >10 | 28 |
| CCn1c(-c2cnc(C)nc2)nc2c(-c3ccc4c(c3)C(C)(N3C[C@H]5C[C@@H]3CO5)C(=O)N4)ncnc21 (mixture of isomers) [Compound 2-26, 5-[9-ethyl-8-(2-methylpyrimidin-5-yl)-9H-purin-6-yl]-3(R and S)-methyl-3-[(1R,4R)-2-oxa-5-azabicyclo[2.2.1]hept-5-yl]-1,3-dihydro-2H-indol-2-one] | >10 | 58 |
| CCn1c(-c2cnc(C)nc2)nc2c(-c3ccc4c(c3)C(C)(N[C@@H](C)C3CCC3)C(=O)N4)ncnc21 (mixture of isomers) [Compound 2-27, 3-{[(1S)-1-cyclobutylethyl]amino}-5-[9-ethyl-8-(2-methylpyrimidin-5-yl)-9H-purin-6-yl]-3(R and S)-methyl-1,3-dihydro-2H-indol-2-one] | >10 | 13 |
| CCn1c(-c2cnc(C)nc2)nc2c(-c3ccc4c(c3)C(C)(N3CC5(CCOC5)C3)C(=O)N4)ncnc21 (racemic) [Compound 2-28, (R and S)-5-[9-ethyl-8-(2-methylpyrimidin-5-yl)-9H-purin-6-yl]-3-methyl-3-(6-oxa-2-azaspiro[3.4]oct-2-yl)-1,3-dihydro-2H-indol-2-one] | >10 | 49 |
| CCn1c(-c2cnc(C)nc2)nc2c(-c3ccc4c(c3)C(C)(CC(C)C)C(=O)N4)ncnc21 (single isomer, unassigned) [Compound 1-1, 5-(9-Ethyl-8-(2-methylpyrimidin-5-yl)-9H-purin-6-yl)-3-isobutyl-3-methylindolin-2-one] | >10 | 4 |
| CCn1c(-c2cnc(C)nc2)nc2c(-c3ccc4c(c3)C(C)(CC(C)C)C(=O)N4)ncnc21 (single isomer, unassigned) [Compound 1-2, 5-(9-Ethyl-8-(2-methylpyrimidin-5-yl)-9H-purin-6-yl)-3-isobutyl-3-methylindolin-2-one] | >10 | 121 |
| CCn1c(-c2cnc(C)nc2)nc2c(-c3ccc4c(c3)C(C)(CC3(C)COC3)C(=O)N4)ncnc21 (single isomer, unassigned) [Compound 1-5, (R or S)-5-[9-ethyl-8-(2-methylpyrimidin-5-yl)-9H-purin-6-yl]-3-methyl-3-[(3-methyloxetan-3-yl)methyl]-1,3-dihydro-2H-indol-2-one] | 3 | 177 |
| CCn1c(-c2cnc(C)nc2)nc2c(-c3ccc4c(c3)C(C)(CC3(C)COC3)C(=O)N4)ncnc21 (single isomer, unassigned) [Compound 1-6, (R or S)-5-[9-ethyl-8-(2-methylpyrimidin-5-yl)-9H-purin-6-yl]-3-methyl-3-[(3-methyloxetan-3-yl)methyl]-1,3-dihydro-2H-indol-2-one] | >10 | 15 |
| CCn1c(-c2cnc(C)nc2)nc2c(-c3ccc4c(c3)C(C)(CC3CC3)C(=O)N4C)ncnc21 (single isomer, unassigned) [Compound 1-9, 3-(Cyclopropylmethyl)-5-(9-ethyl-8-(2-methylpyrimidin-5-yl)-9H-purin-6-yl)-1,3-dimethylindolin-2-one] | >10 | 17 |
| CCn1c(-c2cnc(C)nc2)nc2c(-c3ccc4c(c3)C(C)(CC3CC3)C(=O)N4C)ncnc21 (single isomer, unassigned) [Compound 1-10, 3-(Cyclopropylmethyl)-5-(9-ethyl-8-(2-methylpyrimidin-5-yl)-9H-purin-6-yl)-1,3-dimethylindolin-2-one] | >10 | 194 |
| CCn1c(-c2cnc(C)nc2)nc2c(-c3cnc4c(c3)C(C)(CC(C)C)C(=O)N4)ncnc21 (single isomer, unassigned) [Compound 1-12, 5-(9-ethyl-8-(2-methylpyrimidin-5-yl)-9H-purin-6-yl)-3-isobutyl-3-methyl-1,3-dihydro-2H-pyrrolo[2,3-b]pyridin-2-one] | >10 | 9 |
| CCn1c(-c2cnc(C)nc2)nc2c(-c3cnc4c(c3)C(C)(CC(C)C)C(=O)N4)ncnc21 (single isomer, unassigned) [Compound 1-13, 5-(9-ethyl-8-(2-methylpyrimidin-5-yl)-9H-purin-6-yl)-3-isobutyl-3-methyl-1,3-dihydro-2H-pyrrolo[2,3-b]pyridin-2-one] | >10 | 370 |
| CCn1c(-c2cnc(C)nc2)nc2c(-c3cnc4c(c3)C(C)(CC3CC3)C(=O)N4)ncnc21 (single isomer, unassigned) [Compound 1-14, (R or S)-3-(cyclopropylmethyl)-5-(9-ethyl-S-(2-methylpyrimidin-5-yl)-9H-purin-6-yl)-3-methyl-1,3-dihydro-2H-pyrrolo[2,3-b]pyridin-2-one] | >10 | 16 |
| CCn1c(-c2cnc(C)nc2)nc2c(-c3cnc4c(c3)C(C)(CC3CC3)C(=O)N4)ncnc21 (single isomer, unassigned) [Compound 1-15, (R or S)-3-(cyclopropylmethyl)-5-(9-ethyl-8-(2-methylpyrimidin-5-yl)-9H-purin-6-yl)-3-methyl-1,3-dihydro-2H-pyrrolo[2,3-b]pyridin-2-one] | >10 | 224 |
| CCn1c(-c2cnc(C)nc2)nc2c(-c3ccc4c(c3)C(C)(Cc3ccccc3)C(=O)N4C)ncnc21 (single isomer, unassigned) [Compound 1-20, 3-Benzyl-5-(9-ethyl-8-(2-methylpyrimidin-5-yl)-9H-purin-6-yl)-1,3-dimethylindolin-2-one] | 3 | 477 |
| CCn1c(-c2cnc(C)nc2)nc2c(-c3ccc4c(c3)C(C)(Cc3ccccc3)C(=O)N4C)ncnc21 (single isomer, unassigned) [Compound 1-21, 3-Benzyl-5-(9-ethyl-8-(2-methylpyrimidin-5-yl)-9H-purin-6-yl)-1,3-dimethylindolin-2-one] | >10 | 4 |
| CCn1c(C(F)F)nc2c(-c3ccc4c(c3)C(C)(Cc3ccccc3)C(=O)N4)ncnc21 (single isomer, unassigned) [Compound 1-23, (R or S)-benzyl-5-(8-(difluoromethyl)-9-ethyl-9H-purin-6-yl)-3-methylindolin-2-one] | >10 | 27 |
| CCn1c(C(F)F)nc2c(-c3ccc4c(c3)C(C)(Cc3ccccc3)C(=O)N4)ncnc21 (single isomer, unassigned) [Compound 1-24, (R or S)-benzyl-5-(8-(difluoromethyl)-9-ethyl-9H-purin-6-yl)-3-methylindolin-2-one] | >10 | 658 |
| CCn1ncc(-c2nc3c(-c4ccc5c(c4)C(C)(CC4CC4)C(=O)N5)ncnc3n2CC)c1C (single isomer, unassigned) [Compound 1-25, 3-(Cyclopropylmethyl)-5-(9-ethyl-8-(1-ethyl-5-methyl-1H-pyrazol-4-yl)-9H-purin-6-yl)-3-methylindolin-2-one] | >10 | 4 |
